According to PMC12781162, “Human Protein Z as the Second Known Heme‐Binding Protein from the Endogenous Blood Coagulation Inhibitor System” (Chembiochem, 2025):
Where “and” joins values, the source holds several entries; their conditions need not be identical. Identical values can stand only once.

What was measured:
[1] = Substrate control of the chromogenic assay without thrombin; type: biochemical; settings: no thrombin; heme 1 – 1000 nM, PZ 10 nM; thrombin = 100 %
Method: Herein, an earlier established chromogenic thrombin amidolytic activity assay system was thus used, inspired by Hogg and Stenflo.^[ [19] ^, [28] ^] PZ (final concentration: 10 nM) was first incubated for 30 min with different heme concentrations (final concentrations: 1–1000 nM). Afterward, the heme–PZ mixture was incubated with thrombin for 10 min and the PZ–thrombin mixture (50 µL; final thrombin concentration: 15 nM) was transferred onto a 96‐well plate (Greiner Bio‐One GmbH). Finally, 5 µL of the substrate solution (H‐D‐Phe‐Pip‐Arg‐pNA x 2 HCl (S‐2238); final concentration: 273 µM) was added. Immediately, kinetic measurements at 405 nm were started, using an Infinite 200 Pro spectrophotometer. Heme only, thrombin only, and PZ‐heme only served as controls. For evaluation, the thrombin activity was determined as the change of absorbance per second and always normalized against the basal thrombin activity without PZ. Data were analyzed as the mean of triplicate and the IC50 was calculated by nonlinear regression (GraphPad Prism, version 10.5.0). […]
thrombinheme (0 nM)heme (1 nM) thrombin heme (3.16 nM)heme (10 nM)heme (31.6 nM)heme (100 nM)heme (316 nM)heme (1000 nM)PZ+heme (0 nM)PZ+heme (1 nM) PZ+heme (3.16 nM)PZ+heme (10 nM)PZ+heme (31.6 nM)PZ+heme (100 nM)PZ+heme (316 nM)PZ+heme (1000 nM)
Figure S5. […]

fibrinogen = molecular target: fibrinogen; design: method as in PMID 29322134, PMID 27229173; settings: read-out: K D (heme binding to fibrinogen); cited from earlier work
[2] = molecular target: coagulation factor VIII (FVIII); design: method as in PMID 3105105, PMID 22471307, PMID 38631156; settings: read-out: K D (heme binding to FVIII); cited from earlier work
PZ [3] = molecular target: T1, PZ (Homo sapiens, UniProt P22891); assay: Thrombin-inhibiting activity of PZ in the presence of heme (chromogenic assay); type: biochemical; settings: PZ 10 nM, thrombin 30 nM, 30 min preincubation of PZ with heme; read-out: EC50 (increase of inhibitory activity of PZ against thrombin by heme)
T1 construct: purchased CellSystems GmbH HCPZ-0220 (PZ); HCXA-0060 (FXa)
T1 sequence (P22891 41-400): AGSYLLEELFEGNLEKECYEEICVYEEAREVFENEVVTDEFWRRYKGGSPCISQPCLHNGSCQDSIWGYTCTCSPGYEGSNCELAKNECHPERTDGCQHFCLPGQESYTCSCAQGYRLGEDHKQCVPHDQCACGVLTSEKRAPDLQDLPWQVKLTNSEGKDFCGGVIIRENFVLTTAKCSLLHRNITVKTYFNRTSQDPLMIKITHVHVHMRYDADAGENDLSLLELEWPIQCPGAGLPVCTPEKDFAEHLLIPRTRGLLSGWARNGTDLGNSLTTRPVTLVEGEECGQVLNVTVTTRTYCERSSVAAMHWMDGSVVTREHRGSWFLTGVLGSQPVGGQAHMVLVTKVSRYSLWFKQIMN
Method: Herein, an earlier established chromogenic thrombin amidolytic activity assay system was thus used, inspired by Hogg and Stenflo.^[ [19] ^, [28] ^] PZ (final concentration: 10 nM) was first incubated for 30 min with different heme concentrations (final concentrations: 1–1000 nM). […] Finally, 5 µL of the substrate solution (H‐D‐Phe‐Pip‐Arg‐pNA x 2 HCl (S‐2238); final concentration: 273 µM) was added. Immediately, kinetic measurements at 405 nm were started, using an Infinite 200 Pro spectrophotometer. Heme only, thrombin only, and PZ‐heme only served as controls. For evaluation, the thrombin activity was determined as the change of absorbance per second and always normalized against the basal thrombin activity without PZ. Data were analyzed as the mean of triplicate and the IC50 was calculated by nonlinear regression (GraphPad Prism, version 10.5.0).

PZ [4] = molecular target: T1, PZ; assay: aPTT-based one-stage clotting assay: anticoagulant function of PZ against FXa in the presence of heme; type: biochemical; settings: PZ 32 nM, FXa 0.1 nM; for impact alone on the procoagulant function of FXa or on clotting of pure plasma (aPTT): controls, heme 0.06 – 20 µM
Method: To estimate an effect on molecular level, the structure of the PZ–ZPI complex (PDB: 3H5C^[ [42] ^]) was first inspected with heme attached to PZ. The anticoagulant function of PZ was then analyzed in the presence of heme by a one‐stage clotting assay, which was inspired by previous work from us and others.^[ [19] ^, [27] ^] The aPTT‐based assay was performed with the ball coagulometer KC 4 A (Amelung, Lemgo, Germany). PZ (320 nM) was preincubated with different concentrations of heme (0–100 µM) for 30 min in 1x PBS, pH 7.4. Afterward, 50 µL of the PZ–heme mixture was incubated with 50 µL of Actin FSL, 50 µl CaCl2 (30 mM), and 50 µL FXa (0.5 nM) at 37 °C for 3 min. Finally, 50 µL citrated pooled plasma was added and the clotting time was automatically recorded. The following mixtures served as controls: 1) 50 µL PBS‐heme + 50 µL Actin FSL + 50 µL CaCl2 + 50 µL FXa + 50 µL citrated plasma, 2) 50 µL PBS‐heme + 50 µL Actin FSL + 50 µL CaCl2 + 50 µL PBS + 50 µL citrated plasma, 3) 50 µL PZ–heme + 50 µL Actin FSL + 50 µL CaCl2 + 50 µL PBS + 50 µL citrated plasma, 4) 50 µL PZ‐PBS + 50 µL Actin FSL + 50 µL CaCl2 + 50 µL FXa + 50 µL citrated plasma, 5) 50 µL PZ‐PBS + 50 µL Actin FSL + 50 µL CaCl2 + 50 µL PBS + 50 µL citrated plasma, 6) 50 µL PBS + 50 µL Actin FSL + 50 µL CaCl2 + 50 µL FXa + 50 µL citrated plasma, and 7) 50 µL PBS + 50 µL Actin FSL + 50 µL CaCl2 + 50 µL PBS + 50 µL citrated plasma. Final concentrations in the approach were 6 mM CaCl2, 0–20 µM heme, 32 nM and PZ, 0.1 nM FXa. Data were normalized against the clotting time of citrated plasma only (control (7)) and evaluated as the mean of triplicates. The IC50 was determined by fitting the curves with nonlinear regression (GraphPad Prism, version 10.5.0).

[5] = molecular target: activated protein C (APC); design: method as in PMID 32705892; settings: read-out: K D (heme binding to APC); cited from earlier work

For Hemin [heme], the “relative amidolytic activity toward substrate S-2238” value [1] is given as ~ 0%, the Kd (fibrinogen) is given as ~3000 nM and ~3300 nM and the Kd [2] is given as 2 to 13 nM. For the same substance, the EC50 (PZ [3]) was 12.7 ± 6.36 nM, the “heme level at which the procoagulant function of FXa was restored” value (PZ [4]) was no less than 2 µM and the IC50 (PZ [4]; heme 0.06–20 µM, citrated pooled plasma, read-out: IC50 (inhibition of the anticoagulant function of PZ against FXa)) was 830 ± 210 nM. For the same substance, the “impact alone on the procoagulant function of FXa or on clotting of pure plasma (aPTT)” value (PZ [4]) was “did not exert any significant impact”, the “impact alone on the procoagulant function of FXa or on clotting of pure plasma (aPTT)” value (PZ [4]; listed as Heme) was “did neither affect” and the Kd [5] was roughly 400 nM.
